According to patent publication US20080063628A1, “METHODS TO PROMOTE CELL DIFFERENTIATION” (priority 2006, published 2008):

System: amniotic fluid-derived cell line AFCA009-A
Assay: Trichostatin A 24 h time course, gene expression by Real-Time PCR (Example 2)
Type: cell-based, human
Conditions: 1.25 μM
Procedure: Amniotic fluid derived cells were seeded into 24-well tissue culture plates at a density of 5000/cm^2 and cultured in AMNIOMAX medium (Invitrogen) under standard cell culture conditions until confluent. Cells were obtained according to methods described in Example 14. After reaching confluence, 1.25 μM trichostatin A diluted in DMSO and medium was added to sample wells; an equivalent concentration of DMSO was added to control wells as a no treatment control.
RNA samples were obtained from treated cultures at 30 minutes, 1.5 hours, 3 hours, 6 hours, 12 hours, and 24 hours following addition of trichostatin A or DMSO. Culture medium was removed, cells were washed with PBS, and RLT lysis buffer with β-mercaptoethanol (Qiagen) was added. RNA was purified using the RNeasy Mini Kit (Qiagen). RNA quantity and quality was determined using a spectrophotometer, and cDNA was made using the iScript cDNA synthesis kit (BioRad).
Expression levels of Sox17, HNF-3 beta, Pdx-1, insulin, and glucagon were determined by Real-Time PCR. Samples of 20 ng cDNA were used in each reaction, performed on the Applied Biosystems 7500 according to methods described in Example 15. Data analysis was performed using the accompanying software. Human pancreas cDNA was included as a positive control, and results were normalized against GAPDH expression levels.
Real-time PCR amplifcation and quantitative analysis. Unless otherwise stated, all reagents were purchased from Applied Biosystems. Real-time PCR reactions were performed using the ABI PRISM™ 7500 Sequence Detection System. TAQMAN™ FAST UNIVERSAL PCR MASTER MIX™ (ABI, CA) was used with 20 ng of reverse transcribed RNA in a total reaction volume of 20 μl. Each cDNA sample was run in duplicate to allow correction of pipetting errors. Primers and FAM-labeled TAQMAN™ probes were used at concentrations of 200 nM. The level of expression for each target gene was normalized using the pre-developed Applied Biosystem's human glyceraldehyde-3-phosphate dehydrogenase (GAPDH) endogenous control kit. Primers and probes were designed using either ABI PRISM PRIMER EXPRESS™ software or a pre-developed ABI gene analysis kit. For each gene, either one of the primers or the probe were designed to be exon-boundary spanning. This eliminated the possibility of the primers/probe binding to any genomic DNA present. The primer and probe sets are listed as follows: Pdx-1 (Hs00426216), Insulin (Hs00355773), glucagon (Hs00174967), and FoxA2 (HNF 3-beta) (Hs00232764). The remaining primers were designed using the PRIMERS program (ABI, CA). After an initial 95° C. incubation for 20 sec, samples were cycled 40 times in two stages: a denaturation step at 95° C. for 3 sec, followed by an annealing/extension step at 60° C. for 30 sec.
For each primer/probe set, a cycle time value was determined as the cycle number at which the fluorescence intensity of the PCR reaction reached a specific value in the middle of the exponential region of amplification. An increase in expression of a gene corresponded to a decrease in the number of cycles required for the fluorescence intensity to reach this value.

CC(/C=C/C(=O)NO)=C\[C@@H](C)C(=O)c1ccc(N(C)C)cc1 [trichostatin A]
HNF-3 beta gene expression (0.5 h): + (detectable between 35 and 40 cycles by RT-PCR) | Insulin gene expression (0.5 h): + (detectable between 35 and 40 cycles by RT-PCR) | PDX-1 gene expression (0.5 h): nd (not detectable at >40 cycles by RT-PCR) | Sox17 gene expression (0.5 h): +++ (detectable at less than 35 cycles by RT-PCR with std error less than 0.9) | glucagon gene expression (0.5 h): nd (not detectable at >40 cycles by RT-PCR) | HNF-3 beta RT-PCR detection cycle (30 minutes): > 35 cycles | HNF-3 beta gene expression (1.5 h): + (detectable between 35 and 40 cycles by RT-PCR) | Insulin gene expression (1.5 h): + (detectable between 35 and 40 cycles by RT-PCR) | PDX-1 gene expression (1.5 h): nd (not detectable at >40 cycles by RT-PCR) | Sox17 gene expression (1.5 h): +++ (detectable at less than 35 cycles by RT-PCR with std error less than 0.9) | glucagon gene expression (1.5 h): nd (not detectable at >40 cycles by RT-PCR) | HNF-3 beta gene expression (3 h): +++ (detectable at less than 35 cycles by RT-PCR with std error less than 0.9) | Insulin gene expression (3 h): + (detectable between 35 and 40 cycles by RT-PCR) | PDX-1 gene expression (3 h): nd (not detectable at >40 cycles by RT-PCR) | Sox17 gene expression (3 h): +++ (detectable at less than 35 cycles by RT-PCR with std error less than 0.9) | glucagon gene expression (3 h): nd (not detectable at >40 cycles by RT-PCR) | HNF-3 beta gene expression (6 h): +++ (detectable at less than 35 cycles by RT-PCR with std error less than 0.9) | Insulin gene expression (6 h): nd (not detectable at >40 cycles by RT-PCR) | PDX-1 gene expression (6 h): + (detectable between 35 and 40 cycles by RT-PCR) | Sox17 gene expression (6 h): +++ (detectable at less than 35 cycles by RT-PCR with std error less than 0.9) | glucagon gene expression (6 h): nd (not detectable at >40 cycles by RT-PCR) | Pdx-1 RT-PCR detection cycle (6 hours): > 35 cycles | HNF-3 beta gene expression (12 h): +++ (detectable at less than 35 cycles by RT-PCR with std error less than 0.9) | Insulin gene expression (12 h): + (detectable between 35 and 40 cycles by RT-PCR) | PDX-1 gene expression (12 h): +++ (detectable at less than 35 cycles by RT-PCR with std error less than 0.9) | Sox17 gene expression (12 h): +++ (detectable at less than 35 cycles by RT-PCR with std error less than 0.9) | glucagon gene expression (12 h): + (detectable between 35 and 40 cycles by RT-PCR) | glucagon RT-PCR detection cycle (12 hours): > 35 cycles | HNF-3 beta gene expression (24 h): +++ (detectable at less than 35 cycles by RT-PCR with std error less than 0.9) | Insulin gene expression (24 h): + (detectable between 35 and 40 cycles by RT-PCR) | PDX-1 gene expression (24 h): +++ (detectable at less than 35 cycles by RT-PCR with std error less than 0.9) | Sox17 gene expression (24 h): +++ (detectable at less than 35 cycles by RT-PCR with std error less than 0.9) | glucagon gene expression (24 h): +++ (detectable at less than 35 cycles by RT-PCR with std error less than 0.9) | HNF-3 beta RT-PCR detection cycle (24 hours): < 35 cycles | Pdx-1 RT-PCR detection cycle (24 hours): < 35 cycles | Pdx-1 gene expression relative to human pancreas (24 hours): ~0.1 % of human pancreas levels | glucagon RT-PCR detection cycle (24 hours): < 24 cycles
